# In patent publication US7601745B2, “Heterocyclic NF-kB inhibitors” (4SC AG, priority 2004, dated 2009):
# System: A549-NF-κB-SEAP reporter cells
# Experiment: Inhibition of NF-κB-induced inflammation ([…] NINA Instant Assay, SEAP reporter)
# Assay type: cell-based
# Details: compounds of formula (I); TNF-α stimulated reporter cells; test concentration not given
# Excerpt: For the determination of anti-inflammatory activity of the compounds the […]® NINA Instant Assay from Cell Culture Service GmBH was used. This assay is based on recombinant A549-NF-κB-SEAP reporter cells preseeded in 96-well flat bottom plates. As the transfected reportergen for SEAP (secreted embryonic alkaline phosphatase) is under transcriptional control of a NF-κB-responsive element, the expression of this reporter is activated upon stimulation with TNF-α. SEAP secretion into the culture supernatant can be detected by the chemiluminescent substrate CSPD®. Test compounds that inhibit the NF-κB activation show reduced SEAP activity and reduced luminescent readout.
# Following 18 h of reactivation at 37° C., 5% CO2 and 90% relative humidity, the cells were incubated with 0.01 up to 100 μM of test compound for 4.5 h before stimulation with 2 ng/ml TNF-α. After stimulation with TNF-α for 22 h endogenous phosphatases were inactivated and CSPD® substrate was supplied for 40 min. SEAP activity then was quantified by measuring luminescence as relative light units (RLU) using a Tecan Ultra reader. Each data point was recorded in quadruplicates and EC50 values were calculated via fitting function and the Microsoft Excel Solver.
row,Structure (SMILES),"Biological activity (NF-κB inflammation assay, inhibition)"
1,COc1ccccc1N1CCC(c2nc(C(=O)N3CCN(c4cccc(C(F)(F)F)c4)CC3)cs2)CC1 [compound 158],+ (“+” stands for 50-80% inhibition)
2,COc1ccc(N2CCC(c3nc(C(=O)N4CCN(c5cccc(C(F)(F)F)c5)CC4)cs3)CC2)cc1OC [compound 159],+ (“+” stands for 50-80% inhibition)
3,COc1cc(N2CCC(c3nc(C(=O)N4CCN(c5cccc(C(F)(F)F)c5)CC4)cs3)CC2)nc(OC)n1 [compound 164],++ (“++” means 80-90%)
4,O=C(c1csc(C2CCN(Cc3ccccc3Br)CC2)n1)N1CCN(c2cccc(C(F)(F)F)c2)CC1 [compound 165],+ (“+” stands for 50-80% inhibition)
5,N#Cc1ccc(CN2CCC(c3nc(C(=O)N4CCN(c5cccc(C(F)(F)F)c5)CC4)cs3)CC2)cc1 [compound 166],+ (“+” stands for 50-80% inhibition)
6,O=C(c1csc(C2CCN(Cc3ccc(-c4ccccc4)cc3)CC2)n1)N1CCN(c2cccc(C(F)(F)F)c2)CC1 [compound 167],+ (“+” stands for 50-80% inhibition)
7,O=C(c1csc(C2CCN(Cc3c(F)cccc3F)CC2)n1)N1CCN(c2cccc(C(F)(F)F)c2)CC1 [compound 168],+ (“+” stands for 50-80% inhibition)
8,O=C(c1csc(C2CCN(Cc3ccc(C(F)(F)F)cc3)CC2)n1)N1CCN(c2cccc(C(F)(F)F)c2)CC1 [compound 169],+ (“+” stands for 50-80% inhibition)
9,O=C(c1csc(C2CCN(Cc3ccc(F)cc3)CC2)n1)N1CCN(c2cccc(C(F)(F)F)c2)CC1 [compound 170],+ (“+” stands for 50-80% inhibition)
10,O=C(c1csc(C2CCN(Cc3ccc(F)cc3Cl)CC2)n1)N1CCN(c2cccc(C(F)(F)F)c2)CC1 [compound 171],+ (“+” stands for 50-80% inhibition)
11,O=C(c1csc(C2CCN(Cc3ccc(OC(F)(F)F)cc3)CC2)n1)N1CCN(c2cccc(C(F)(F)F)c2)CC1 [compound 172],+ (“+” stands for 50-80% inhibition)
12,COc1cccc(CN2CCC(c3nc(C(=O)N4CCN(c5cccc(C(F)(F)F)c5)CC4)cs3)CC2)c1 [compound 173],+ (“+” stands for 50-80% inhibition)
13,O=C(c1csc(C2CCN(Cc3ccc(Br)cc3)CC2)n1)N1CCN(c2cccc(C(F)(F)F)c2)CC1 [compound 174],+ (“+” stands for 50-80% inhibition)
14,O=C(c1csc(C2CCN(Cc3cc(C(F)(F)F)cc(C(F)(F)F)c3)CC2)n1)N1CCN(c2cccc(C(F)(F)F)c2)CC1 [compound 175],+ (“+” stands for 50-80% inhibition)
15,COc1nc(OC)nc(N2CCC(c3nc(C(=O)N4CCN(c5cccc(C(F)(F)F)c5)CC4)cs3)CC2)n1 [compound 176],+ (“+” stands for 50-80% inhibition)
16,O=C(c1csc(C2CCN(Cc3ccccc3)CC2)n1)N1CCN(c2cccc(C(F)(F)F)c2)CC1 [compound 177],+ (“+” stands for 50-80% inhibition)
17,COc1cccc(N2CCC(c3nc(C(=O)N4CCN(c5cccc(C(F)(F)F)c5)CC4)cs3)CC2)c1 [compound 178],+ (“+” stands for 50-80% inhibition)
18,O=C(Cc1ccc(F)cc1)N1CCC(c2nc(C(=O)N3CCN(c4ccccc4)CC3)cs2)CC1 [compound 180],+ (“+” stands for 50-80% inhibition)
19,O=C(Cc1ccc(F)cc1)N1CCC(c2nc(C(=O)N3CCC(n4nnc5cc(C(F)(F)F)ccc54)CC3)cs2)CC1 [compound 181],+ (“+” stands for 50-80% inhibition)
20,O=C(Cc1ccc(F)cc1)N1CCC(c2nc(C(=O)N3CCC(n4nnc5ccccc54)CC3)cs2)CC1 [compound 182],+ (“+” stands for 50-80% inhibition)
21,O=C(O)c1cccnc1C(=O)N1CCC(c2nc(C(=O)N3CCN(c4cccc(C(F)(F)F)c4)CC3)cs2)CC1 [compound 183],+ (“+” stands for 50-80% inhibition)
22,O=C(O)c1ccc(C(=O)O)c(C(=O)N2CCC(c3nc(C(=O)N4CCN(c5cccc(C(F)(F)F)c5)CC4)cs3)CC2)c1 [compound 184],+ (“+” stands for 50-80% inhibition)

row,Structure (SMILES),"Biological activity (NF-κB inflammation assay, inhibition)"
1,O=C(O)c1ccccc1C(=O)N1CCC(c2nc(C(=O)N3CCN(c4cccc(C(F)(F)F)c4)CC3)cs2)CC1 [compound 185],+ (“+” stands for 50-80% inhibition)
2,O=C(O)c1cccc(O)c1C(=O)N1CCC(c2nc(C(=O)N3CCN(c4cccc(C(F)(F)F)c4)CC3)cs2)CC1 [compound 186],+ (“+” stands for 50-80% inhibition)
3,O=C(O)c1cc(Cl)c(Cl)cc1C(=O)N1CCC(c2nc(C(=O)N3CCN(c4cccc(C(F)(F)F)c4)CC3)cs2)CC1 [compound 187],+ (“+” stands for 50-80% inhibition)
4,O=C(O)C1=C(C(=O)N2CCC(c3nc(C(=O)N4CCN(c5cccc(C(F)(F)F)c5)CC4)cs3)CC2)CCC1 [compound 188],+ (“+” stands for 50-80% inhibition)
5,O=C(O)C1CCCCC1C(=O)N1CCC(c2nc(C(=O)N3CCN(c4cccc(C(F)(F)F)c4)CC3)cs2)CC1 (stereo not shown) [compound 189],+ (“+” stands for 50-80% inhibition)
6,O=C(O)C1=C(C(=O)N2CCC(c3nc(C(=O)N4CCN(c5cccc(C(F)(F)F)c5)CC4)cs3)CC2)CCCC1 [compound 190],+ (“+” stands for 50-80% inhibition)
7,O=C(O)C=CC(=O)N1CCC(c2nc(C(=O)N3CCN(c4cccc(C(F)(F)F)c4)CC3)cs2)CC1 [compound 191],+ (“+” stands for 50-80% inhibition)
8,Cc1noc(C)c1S(=O)(=O)N1CCC(c2nc(C(=O)N3CCN(c4cccc(C(F)(F)F)c4)CC3)cs2)CC1 [compound 192],+ (“+” stands for 50-80% inhibition)
9,O=C(c1csc(C2CCN(S(=O)(=O)c3c(F)c(F)c(F)c(F)c3F)CC2)n1)N1CCN(c2cccc(C(F)(F)F)c2)CC1 [compound 193],+ (“+” stands for 50-80% inhibition)
10,O=C(c1csc(C2CCN(S(=O)(=O)c3cccs3)CC2)n1)N1CCN(c2cccc(C(F)(F)F)c2)CC1 [compound 194],+ (“+” stands for 50-80% inhibition)
11,O=C(c1csc(C2CCN(S(=O)(=O)c3ccc(F)cc3Cl)CC2)n1)N1CCN(c2cccc(C(F)(F)F)c2)CC1 [compound 195],+ (“+” stands for 50-80% inhibition)
12,O=C(c1csc(C2CCN(S(=O)(=O)c3ccccc3Br)CC2)n1)N1CCN(c2cccc(C(F)(F)F)c2)CC1 [compound 196],+ (“+” stands for 50-80% inhibition)
13,O=C(c1csc(C2CCN(S(=O)(=O)c3c(Cl)nc4sccn34)CC2)n1)N1CCN(c2cccc(C(F)(F)F)c2)CC1 [compound 197],+ (“+” stands for 50-80% inhibition)
14,O=C(c1csc(C2CCN(S(=O)(=O)Cc3ccccc3)CC2)n1)N1CCN(c2cccc(C(F)(F)F)c2)CC1 [compound 198],+ (“+” stands for 50-80% inhibition)
15,O=C(c1csc(C2CCN(S(=O)(=O)c3ccc(Br)cc3)CC2)n1)N1CCN(c2cccc(C(F)(F)F)c2)CC1 [compound 199],+ (“+” stands for 50-80% inhibition)
16,O=C(c1csc(C2CCN(S(=O)(=O)c3ccc(Cl)cc3Cl)CC2)n1)N1CCN(c2cccc(C(F)(F)F)c2)CC1 [compound 200],+ (“+” stands for 50-80% inhibition)
17,O=C(c1csc(C2CCN(S(=O)(=O)c3cc(C(F)(F)F)cc(C(F)(F)F)c3)CC2)n1)N1CCN(c2cccc(C(F)(F)F)c2)CC1 [compound 201],++ (“++” means 80-90%)
18,COc1ccc(Cl)cc1S(=O)(=O)N1CCC(c2nc(C(=O)N3CCN(c4cccc(C(F)(F)F)c4)CC3)cs2)CC1 [compound 202],++ (“++” means 80-90%)
19,O=C(c1csc(C2CCN(S(=O)(=O)c3ccc(Br)s3)CC2)n1)N1CCN(c2cccc(C(F)(F)F)c2)CC1 [compound 203],+ (“+” stands for 50-80% inhibition)
20,Cc1ccc(S(=O)(=O)N2CCC(c3nc(C(=O)N4CCN(c5cccc(C(F)(F)F)c5)CC4)cs3)CC2)cc1 [compound 204],+ (“+” stands for 50-80% inhibition)
21,O=C(c1csc(C2CCN(S(=O)(=O)c3ccc(OC(F)(F)F)cc3)CC2)n1)N1CCN(c2cccc(C(F)(F)F)c2)CC1 [compound 205],+ (“+” stands for 50-80% inhibition)

# Same assay, conditions: compounds of formula (Ic); TNF-α stimulated reporter cells; test concentration not given
row,Structure (SMILES),"Biological activity (NF-κB inflammation assay, inhibition)"
1,O=C(Cc1ccc(F)cc1)N1CCC(c2nc(C(=O)N3CCc4cc(O)c(O)cc4C3)cs2)CC1 [compound 160],+ (“+” stands for 50-80% inhibition)
2,COc1cc2c(cc1OC)CN(C(=O)c1csc(C3CCN(C(=O)Cc4ccc(F)cc4)CC3)n1)CC2 [compound 161],+ (“+” stands for 50-80% inhibition)
3,O=C(Cc1ccc(F)cc1)N1CCC(c2nc(C(=O)N3CCc4ccccc4C3)cs2)CC1 [compound 163],+ (“+” stands for 50-80% inhibition)
